Assay results published in ChEMBL document CHEMBL1201862, “PubChem BioAssay data set” (2004).
Activity calls are given as the source filed them.

How the values were obtained:
[1] = molecular target: Metabotropic glutamate receptor 7 (Homo sapiens, UniProt Q14831); experiment: potentiation of glutamate EC20 at mGlu7 – cell-based, calcium mobilization, Galpha15, dose response (AID 743384); format: functional
Large T antigen = Large T antigen (Simian virus 40, UniProt P03070); format: functional, Betapolyomavirus macacae;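 note: Confirmatory-stage PubChem screen for compounds that inhibit SV40 T antigen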
[2] = Trypanosoma cruzi growth suppression in host cells – NIH3T3 host cells, beta-gal luminescence, confirmation (AID 2044); format: functional, cell-based;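 note: intracellular parasites grown in NIH/3T3 mouse fibroblasts as host cells; luminescent beta-galactosidase reporter signal from transgenic T. cruzi replicating inside host cells; inhibitors lower the luminescence signal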
[3] = NIH3T3 cell viability loss – ATP luminescence, mouse fibroblasts, counter-screen, dose response (AID 2010); format: functional, cell-based;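 note: cells exposed to compound for about 90 hours before reading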
[4] = molecular target: Bifunctional protein GlmU (Mycobacterium tuberculosis, UniProt P9WMN3); experiment: Inhibitors of Mycobacterial Glucosamine-1-phosphate acetyl transferase (GlmU). Secondary screen.; design: species or system Mycobacterium tuberculosis H37Rv
Sequence of Bifunctional protein GlmU (P9WMN3 whole entry): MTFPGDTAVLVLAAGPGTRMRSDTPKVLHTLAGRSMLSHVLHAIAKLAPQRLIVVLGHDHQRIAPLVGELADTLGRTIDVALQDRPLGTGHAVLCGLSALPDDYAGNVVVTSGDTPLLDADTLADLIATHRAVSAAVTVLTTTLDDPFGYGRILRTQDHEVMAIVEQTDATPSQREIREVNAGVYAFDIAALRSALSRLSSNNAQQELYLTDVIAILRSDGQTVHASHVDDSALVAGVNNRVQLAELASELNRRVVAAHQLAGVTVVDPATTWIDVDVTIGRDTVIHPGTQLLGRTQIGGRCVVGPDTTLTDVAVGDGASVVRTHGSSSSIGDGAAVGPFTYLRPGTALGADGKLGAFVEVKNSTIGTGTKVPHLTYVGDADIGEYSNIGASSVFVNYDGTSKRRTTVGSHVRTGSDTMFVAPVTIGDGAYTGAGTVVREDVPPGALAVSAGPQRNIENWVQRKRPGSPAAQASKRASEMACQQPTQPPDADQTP

[5] = molecular target: T1, Heat shock factor protein 1 (Mus musculus, UniProt P38532); experiment: enhancement of HSF1-driven luciferase signal – cell-based, NIH3T3, luminescence, dose retest, confirmation (AID 435004); format: functional;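 note: stress induced by proteasome inhibitor MG132 added 30 min after compound; luciferase reporter driven by HSF1 response element in NIH3T3 cells; actives raise luminescence as potentiators of the MG132 stress response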
T1 sequence (P38532 whole entry): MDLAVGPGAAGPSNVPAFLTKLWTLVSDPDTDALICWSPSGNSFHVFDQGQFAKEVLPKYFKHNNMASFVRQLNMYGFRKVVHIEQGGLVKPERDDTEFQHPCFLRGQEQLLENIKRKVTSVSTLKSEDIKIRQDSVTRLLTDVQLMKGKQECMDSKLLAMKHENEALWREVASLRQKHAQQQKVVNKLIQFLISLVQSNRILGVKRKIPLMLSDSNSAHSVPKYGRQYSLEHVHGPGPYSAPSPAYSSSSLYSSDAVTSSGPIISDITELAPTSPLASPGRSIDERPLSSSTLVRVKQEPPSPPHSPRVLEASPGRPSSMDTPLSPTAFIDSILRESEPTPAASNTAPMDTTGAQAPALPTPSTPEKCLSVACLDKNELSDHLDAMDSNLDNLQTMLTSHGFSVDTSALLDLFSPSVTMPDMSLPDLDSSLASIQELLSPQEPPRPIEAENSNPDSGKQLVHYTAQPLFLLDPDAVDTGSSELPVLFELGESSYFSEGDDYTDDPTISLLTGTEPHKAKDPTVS

CHO = CHO cell viability loss, potency – luminescence, cytotoxicity control for TLR9-MyD88 binding inhibitor project, dose response (AID 588339); format: functional, cell-based, hamster; conditions: Cricetulus griseus;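 note: CHO cells stably coexpressing TLR9 and MyD88 fusions from primary screen; compound exposure lasted 48 hours before viability readout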
Beta Lactamase = Beta Lactamase (Pseudomonas aeruginosa, UniProt Q932Y6); experiment: BLA reporter interference, concentration series – BLA reporter cells, FRET fluorescence, artefact control for TLR9-MyD88 binding inhibitor project, dose response (AID 588341); format: cell-based;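 note: cell based assay in CHO-K1 cells stably expressing beta-lactamase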
Sequence of Beta Lactamase (Q932Y6 whole entry): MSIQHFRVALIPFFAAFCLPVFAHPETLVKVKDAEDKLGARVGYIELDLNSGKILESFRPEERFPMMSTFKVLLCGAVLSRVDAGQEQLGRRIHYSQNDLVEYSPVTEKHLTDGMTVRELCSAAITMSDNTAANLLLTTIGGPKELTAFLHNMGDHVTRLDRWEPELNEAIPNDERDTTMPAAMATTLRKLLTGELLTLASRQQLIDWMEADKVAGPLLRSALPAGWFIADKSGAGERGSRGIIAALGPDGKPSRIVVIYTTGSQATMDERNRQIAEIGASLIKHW

[6] = reduction of Shn3 3'UTR-driven luciferase in osteoblasts – cell-based, Clone20 osteoblasts, firefly luciferase, cherry-picked, dose response (AID 624132); format: functional;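 note: firefly luciferase luminescence from reporter carrying the Shn3 3'UTR in osteoblasts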
[7] = loss of viability in HepG2 cells – cell-based, CellTiter-Glo, cherry-picked, cytotoxicity control for Shn3 inhibitor project, dose response (AID 624134); format: functional
[8] = non-specific 3'UTR reporter inhibition in Clone20-Shn3RL – cell-based, Renilla luciferase, cherry-picked, counter-screen for Shn3 inhibitor project, dose response (AID 624133); format: functional
[9] = Shn3 transcript knock-down in Clone20 cells – cell-based, qPCR, cherry-pick, dose response (AID 743415); format: functional
[10] = Shn3 3'UTR reporter signal decrease – cell-based, Clone20 osteoblasts, firefly luciferase, cherry-pick, set 2, Schnurri-3 inhibitor project, dose response (AID 720490); format: functional;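 note: actives lower the luminescence signal as inhibitors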
[11] = EF1alpha-driven Renilla reporter with control 3'UTR suppression – Clone20-Shn3RL cells, dual-Glo, cherry-pick, set 2, counter-screen for Shn3 3'UTR targeting project, dose response (AID 720724); format: functional, cell-based; conditions: Dual-Go Shn3RL
[12] = molecular target: E3 ubiquitin-protein ligase UHRF1 (Homo sapiens, UniProt Q96T88); experiment: Counterscreen for inhibitors of 5-meCpG-binding domain protein 2 (MBD2): TRFRET-based biochemical high throughput dose response assay to identify inhibitors of binding of ubiquitin-like with PHD and ring finger domains 1 (UHRF1) to methylated oligonucleotide.
Sequence of E3 ubiquitin-protein ligase UHRF1 (Q96T88 whole entry, the tested form may be a part): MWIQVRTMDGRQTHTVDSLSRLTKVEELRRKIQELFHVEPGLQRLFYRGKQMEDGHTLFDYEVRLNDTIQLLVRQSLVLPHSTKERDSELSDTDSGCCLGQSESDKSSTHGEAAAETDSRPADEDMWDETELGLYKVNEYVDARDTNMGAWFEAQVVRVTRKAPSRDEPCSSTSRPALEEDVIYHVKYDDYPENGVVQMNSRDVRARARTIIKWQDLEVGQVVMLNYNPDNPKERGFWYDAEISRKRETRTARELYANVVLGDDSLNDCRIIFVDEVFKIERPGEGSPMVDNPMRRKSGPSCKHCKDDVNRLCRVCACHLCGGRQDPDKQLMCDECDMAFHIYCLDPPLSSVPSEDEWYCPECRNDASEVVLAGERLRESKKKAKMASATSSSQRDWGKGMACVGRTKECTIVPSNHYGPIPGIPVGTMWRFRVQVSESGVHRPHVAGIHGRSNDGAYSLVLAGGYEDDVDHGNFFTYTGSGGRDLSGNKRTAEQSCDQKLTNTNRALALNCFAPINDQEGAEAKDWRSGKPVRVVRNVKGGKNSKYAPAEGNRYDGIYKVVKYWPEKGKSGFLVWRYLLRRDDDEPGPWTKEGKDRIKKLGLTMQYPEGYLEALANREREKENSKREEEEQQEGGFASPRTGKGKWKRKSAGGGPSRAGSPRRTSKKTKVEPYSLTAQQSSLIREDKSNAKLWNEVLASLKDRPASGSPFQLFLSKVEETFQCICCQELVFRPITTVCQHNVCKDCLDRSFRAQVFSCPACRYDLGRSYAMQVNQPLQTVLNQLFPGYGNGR

[13] = IC50 of Artemis nuclease activity blockers – biochemical, fluorescence intensity, dose response (AID 720701); format: functional;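 note: Artemis endonuclease enzyme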
[14] = time-course viability loss in HT-29 cells – cell-based, CellTiter-Glo, multiple timepoints, dry powder, HRas target identification project, dose response (AID 720598); format: functional
[15] = cytotoxicity in SR immunoblastic lymphoma cells – cell-based, CellTiter-Glo ATP luminescence, 8-48 h, dry powder, mechanism study for HRAS target identification, late-stage follow-up (AID 720608); format: functional
[16] = cytotoxicity in LOX IMVI melanoma cells – cell-based, CellTiter-Glo ATP luminescence, 8/24/48 h, dry powder, HRAS target identification, dose response (AID 720602); format: functional
[17] = cytotoxicity in SNB-75 CNS cells – cell-based, CellTiter-Glo ATP luminescence, several timepoints, dry powder, mechanism study for HRAS target identification, late-stage follow-up (AID 720624); format: functional
[18] = cytotoxicity in mouse C2C12 myoblasts – cell-based, CellTiter-Glo ATP luminescence, 8/24/48 h, dry powder, cytotoxicity control for HRAS target identification, dose response (AID 720603); format: functional
[19] = cytotoxicity in U-251 CNS tumor cells – cell-based, Alamar Blue fluorescence, 8/24/48 h, dry powder, HRAS target identification, dose response (AID 720605); format: functional
[20] = cytotoxicity in CCRF-CEM lymphoblastic leukemia cells – cell-based, CellTiter-Glo ATP luminescence, 8/24/48 h, dry powder, HRAS target identification, dose response (AID 720607); format: functional
[21] = molecular target: RNA-editing ligase 1, mitochondrial (Trypanosoma brucei brucei, UniProt P86926); experiment: inhibition of trypanosome RNA editing ligase – biochemical, fluorescence, Trypanosoma brucei, dose response (AID 1117295); format: functional
Sequence of RNA-editing ligase 1, mitochondrial (P86926 whole entry): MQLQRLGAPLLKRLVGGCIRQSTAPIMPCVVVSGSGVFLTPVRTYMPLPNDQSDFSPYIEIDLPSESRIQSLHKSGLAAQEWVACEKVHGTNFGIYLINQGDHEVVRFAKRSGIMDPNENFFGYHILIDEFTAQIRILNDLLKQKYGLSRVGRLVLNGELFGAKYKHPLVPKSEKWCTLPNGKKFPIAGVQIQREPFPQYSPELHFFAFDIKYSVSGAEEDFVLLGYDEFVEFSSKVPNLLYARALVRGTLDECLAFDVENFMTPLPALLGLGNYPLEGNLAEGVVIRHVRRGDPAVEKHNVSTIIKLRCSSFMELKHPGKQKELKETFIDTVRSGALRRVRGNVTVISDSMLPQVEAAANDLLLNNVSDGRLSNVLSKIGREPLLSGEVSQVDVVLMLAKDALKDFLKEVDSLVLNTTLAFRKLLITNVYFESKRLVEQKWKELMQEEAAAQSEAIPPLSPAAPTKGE

[22] = IC50 of insulin release inhibition, rat insulinoma INS-1E line, 5 mM glucose, cell-based (AID 1117331); format: functional
Cytochrome P450 1A2 = molecular target: T2, Cytochrome P450 1A2 (Homo sapiens, UniProt P05177);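 note: PubChem cytochrome P450 panel assay, CYP1A2 panel member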
T2 sequence (P05177 whole entry): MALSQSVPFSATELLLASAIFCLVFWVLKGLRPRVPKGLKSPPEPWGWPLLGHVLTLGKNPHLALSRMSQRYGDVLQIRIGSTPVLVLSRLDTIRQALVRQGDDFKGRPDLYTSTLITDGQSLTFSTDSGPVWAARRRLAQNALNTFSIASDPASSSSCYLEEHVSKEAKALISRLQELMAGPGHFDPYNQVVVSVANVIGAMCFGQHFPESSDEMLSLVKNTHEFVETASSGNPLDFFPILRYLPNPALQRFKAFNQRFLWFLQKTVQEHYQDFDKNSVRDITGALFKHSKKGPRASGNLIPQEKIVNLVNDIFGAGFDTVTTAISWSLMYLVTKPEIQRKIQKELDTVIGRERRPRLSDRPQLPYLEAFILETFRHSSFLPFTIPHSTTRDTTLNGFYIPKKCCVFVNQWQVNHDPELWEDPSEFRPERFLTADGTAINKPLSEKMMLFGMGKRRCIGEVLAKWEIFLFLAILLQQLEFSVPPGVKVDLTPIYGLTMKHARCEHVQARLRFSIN

Cytochrome P450 3A4 = Cytochrome P450 3A4 (Homo sapiens, UniProt P08684);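 note: CYP3A4 tested as one member of a cytochrome P450 panel screen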
Sequence of Cytochrome P450 3A4 (P08684 whole entry): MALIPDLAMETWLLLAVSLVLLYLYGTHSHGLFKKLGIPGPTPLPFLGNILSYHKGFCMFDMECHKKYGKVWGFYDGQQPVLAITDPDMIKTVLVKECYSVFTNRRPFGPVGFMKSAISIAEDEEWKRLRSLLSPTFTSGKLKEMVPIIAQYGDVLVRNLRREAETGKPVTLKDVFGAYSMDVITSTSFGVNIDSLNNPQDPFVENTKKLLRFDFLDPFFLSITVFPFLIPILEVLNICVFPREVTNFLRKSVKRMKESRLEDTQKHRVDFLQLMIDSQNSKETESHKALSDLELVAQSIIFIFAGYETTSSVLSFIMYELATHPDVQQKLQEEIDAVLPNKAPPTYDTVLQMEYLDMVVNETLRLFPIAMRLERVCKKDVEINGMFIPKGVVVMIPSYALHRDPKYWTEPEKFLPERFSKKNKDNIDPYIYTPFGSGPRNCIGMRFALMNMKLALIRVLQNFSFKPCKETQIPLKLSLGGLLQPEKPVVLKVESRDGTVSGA

[23] = inhibitors of non-replicating M. tuberculosis, dose response, luciferase, dry powder (AID 651619); format: functional; conditions: Mycobacterium tuberculosis
[24] = inhibitors of non-replicating M. tuberculosis, dose response, luciferase, dry powder (AID 651620); format: functional; conditions: Mycobacterium tuberculosis
[25] = CellTiter-Glo luminescence survival assay, SW480 colon tumor line, concentration-response curve, half-maximal inhibitory concentration (AID 1117338); format: functional
[26] = RKO cell viability reduction, dose response, CellTiter-Glo luminescence (AID 1117322); format: functional
[27] = cytotoxicity toward HCT116 cells – cell-based, CellTiter-Glo luminescence, IC50, dose response (AID 1117332); format: functional; conditions: HCT-116
[28] = SNU-C1 cell viability reduction, dose response, CellTiter-Glo luminescence (AID 1117323); format: functional, cell-based
[29] = cytotoxicity toward Colo320 cells – cell-based, CellTiter-Glo luminescence, IC50, dose response (AID 1117334); format: functional; conditions: COLO 320
[30] = cytotoxicity toward HT-29 cells – cell-based, CellTiter-Glo luminescence, IC50, dose response (AID 1117330); format: functional
[31] = Reduced DLD-1 viability, concentration-response, CellTiter-Glo luminescence (AID 1117352); format: functional
[32] = HCT116 cell viability decrease, GSK3B pretreatment – CellTiter-Glo, IC50, dose response (AID 1117339); format: functional; conditions: HCT-116
[33] = viability loss in HEK293 cells – cell-based, luminescence, dry powder, set 12, cytotoxicity control, dose response (AID 743354); format: functional
[34] = reduced cellular PGC1a acetyl-lysine signal – cell-based, cherry-picked samples, dose response (AID 720514); format: functional;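 note: potency may reflect raised or lowered acetylation signal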
[35] = molecular target: Potassium channel subfamily K member 9 (Homo sapiens, UniProt Q9NPC2); experiment: TASK3 channel blockers, electrophysiology – cell-based, automated electrophysiology, selectivity assay for TASK1 (KCNK3) inhibitor project, SAR follow-up (AID 652210); format: functional
Sequence of Potassium channel subfamily K member 9 (Q9NPC2 whole entry): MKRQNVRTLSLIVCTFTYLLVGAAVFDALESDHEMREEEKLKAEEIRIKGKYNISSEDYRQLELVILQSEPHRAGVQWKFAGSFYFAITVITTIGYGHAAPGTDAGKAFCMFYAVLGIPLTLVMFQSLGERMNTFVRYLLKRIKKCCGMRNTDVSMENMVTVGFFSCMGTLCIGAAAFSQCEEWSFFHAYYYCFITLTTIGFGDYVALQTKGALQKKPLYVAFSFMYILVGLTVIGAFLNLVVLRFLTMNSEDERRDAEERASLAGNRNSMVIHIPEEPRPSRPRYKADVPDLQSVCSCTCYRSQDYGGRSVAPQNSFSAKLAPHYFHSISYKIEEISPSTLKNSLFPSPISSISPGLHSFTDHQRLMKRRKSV

[36] = molecular target: Potassium channel subfamily K member 3 (Homo sapiens, UniProt O14649); experiment: inhibition of human KCNK3 channel flux – CHO cells, FluxOR thallium flux, SAR follow-up (AID 652212); format: functional
Sequence of Potassium channel subfamily K member 3 (O14649 whole entry): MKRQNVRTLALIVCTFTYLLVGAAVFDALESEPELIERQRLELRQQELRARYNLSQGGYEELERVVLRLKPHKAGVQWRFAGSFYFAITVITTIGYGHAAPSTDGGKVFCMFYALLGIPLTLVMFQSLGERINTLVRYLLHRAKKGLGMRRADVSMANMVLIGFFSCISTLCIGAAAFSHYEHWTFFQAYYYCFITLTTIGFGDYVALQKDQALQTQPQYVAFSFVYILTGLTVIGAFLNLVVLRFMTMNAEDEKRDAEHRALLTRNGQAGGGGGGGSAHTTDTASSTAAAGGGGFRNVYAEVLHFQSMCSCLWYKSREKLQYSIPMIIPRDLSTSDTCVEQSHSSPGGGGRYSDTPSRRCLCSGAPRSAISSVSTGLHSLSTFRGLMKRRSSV

[37] = molecular target: T3, Endoribonuclease toxin MazF (Escherichia coli K-12, UniProt P0AE70); experiment: activation of MazEF endoribonuclease cleavage – biochemical, fluorescence, single-stranded RNA substrate, uHTS hits, dose response (AID 588481); format: functional
T3 sequence (P0AE70 whole entry): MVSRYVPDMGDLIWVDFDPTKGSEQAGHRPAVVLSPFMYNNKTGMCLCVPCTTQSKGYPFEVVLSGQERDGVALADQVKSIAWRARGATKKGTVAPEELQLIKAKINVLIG

[38] = molecular target: T3, Endoribonuclease toxin MazF; experiment: substrate-only fluorescence increase artefacts – biochemical, single-stranded RNase substrate, counter-screen for MazEF activator project, dose response (AID 588502); format: functional
Fibrinogen beta chain [39] = molecular target: T4, Fibrinogen beta chain (Homo sapiens, UniProt P02675); experiment: Fluorescence polarization-based biochemical high throughput dose response assay to identify inhibitors that disrupt the binding of a cyclic peptide (Tn6) to the fibrin proteolytic product D-Dimer and fragment E complex [DD(E )].
T4 sequence (P02675 whole entry, the tested form may be a part): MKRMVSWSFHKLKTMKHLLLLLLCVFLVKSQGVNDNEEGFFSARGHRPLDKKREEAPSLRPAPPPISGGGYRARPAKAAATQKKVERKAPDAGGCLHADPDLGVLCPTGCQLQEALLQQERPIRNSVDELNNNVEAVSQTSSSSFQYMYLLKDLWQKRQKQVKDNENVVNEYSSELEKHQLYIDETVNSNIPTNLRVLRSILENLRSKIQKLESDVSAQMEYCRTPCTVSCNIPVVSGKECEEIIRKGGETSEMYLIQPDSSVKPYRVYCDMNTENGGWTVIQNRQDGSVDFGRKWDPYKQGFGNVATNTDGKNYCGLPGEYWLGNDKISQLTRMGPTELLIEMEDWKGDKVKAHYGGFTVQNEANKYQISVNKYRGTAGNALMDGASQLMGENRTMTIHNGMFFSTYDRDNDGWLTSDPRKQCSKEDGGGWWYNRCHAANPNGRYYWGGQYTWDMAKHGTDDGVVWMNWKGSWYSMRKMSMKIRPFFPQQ

Fibrinogen beta chain [40] = molecular target: T4, Fibrinogen beta chain; experiment: Fluorescence polarization-based biochemical high throughput dose response assay to identify inhibitors that disrupt the binding of a cyclic peptide (Tn7) to the fibrin proteolytic product D-Dimer and fragment E complex [DD(E )].

Sequence of Metabotropic glutamate receptor 7 (Q14831 whole entry): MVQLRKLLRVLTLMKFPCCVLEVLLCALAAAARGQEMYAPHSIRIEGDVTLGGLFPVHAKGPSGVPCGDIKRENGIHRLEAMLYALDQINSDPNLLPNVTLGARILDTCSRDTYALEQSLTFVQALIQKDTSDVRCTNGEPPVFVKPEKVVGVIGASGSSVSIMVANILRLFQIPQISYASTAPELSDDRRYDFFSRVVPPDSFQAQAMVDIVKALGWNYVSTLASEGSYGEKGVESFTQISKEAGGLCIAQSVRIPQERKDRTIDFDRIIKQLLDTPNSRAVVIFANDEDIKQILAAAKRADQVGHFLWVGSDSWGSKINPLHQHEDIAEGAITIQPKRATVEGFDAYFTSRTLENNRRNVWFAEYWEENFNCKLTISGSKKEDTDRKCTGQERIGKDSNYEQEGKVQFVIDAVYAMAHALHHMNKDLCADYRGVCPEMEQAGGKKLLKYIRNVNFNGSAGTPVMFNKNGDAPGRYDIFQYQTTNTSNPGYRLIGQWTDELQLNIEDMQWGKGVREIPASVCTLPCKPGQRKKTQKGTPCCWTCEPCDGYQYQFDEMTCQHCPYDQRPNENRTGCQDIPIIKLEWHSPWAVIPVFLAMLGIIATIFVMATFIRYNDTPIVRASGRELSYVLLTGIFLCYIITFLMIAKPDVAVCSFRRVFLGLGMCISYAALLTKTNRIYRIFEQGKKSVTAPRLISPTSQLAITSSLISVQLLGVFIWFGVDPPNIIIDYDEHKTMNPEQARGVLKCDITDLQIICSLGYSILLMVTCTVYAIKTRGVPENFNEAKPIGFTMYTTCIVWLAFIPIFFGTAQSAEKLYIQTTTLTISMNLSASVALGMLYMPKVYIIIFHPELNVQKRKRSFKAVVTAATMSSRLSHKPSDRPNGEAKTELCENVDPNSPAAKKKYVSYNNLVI

## CC(=O)Nc1ccc(SCC(=O)c2cc(C)n(CC3CCCO3)c2C)cc1 (stereo not given)
[1]
  EC50: 4.8 µM (active)

## O=C(c1nnsc1[S+]([O-])c1ccc(Cl)cc1)N1CCOCC1 (stereo not given)
Large T antigen
  IC50: 31.6 µM (active)
[2]
  EC50: 1.85 µM (active)
[3]
  EC50: 2.13 µM (active)
[4]
  IC50: 181 µM (active)
[5]
  EC50: 9.23 µM (active)
CHO
  IC50: 2.21 µM (active)
Beta Lactamase
  IC50: 30.8 µM (inactive)
[6]
  AC50: 0.93 µM (active)
[7]
  AC50: 27.3 µM (active)
[8]
  AC50: 7.35 µM (active)
[9]
  AC50: 13.4 µM (active)
[10]
  AC50: 2.43 µM (active)
[11]
  AC50: 3.79 µM (active)

## CN(C)C(=O)c1cccc(-c2cnc3c(NC=O)cc(-c4ccccc4N(C)C)cn23)c1
[12]
  IC50: > 43.8 µM (inactive)

## N#Cc1nc(-c2ccc(OCc3ccc(Cl)cc3)cc2)oc1NCCCn1ccnc1
[13]
  IC50: 4.52 µM (active)

## COC(=O)c1ccc([C@@H]2c3[nH]c4ccccc4c3C[C@@H](C(=O)OC)N2C(=O)CCl)cc1
[14]
  AC50: 0.235 µM (active)
[15]
  AC50: 0.0492 µM (active)
[16]
  AC50: 0.0709 µM (active)
[17]
  AC50: 0.374 µM (active)
[18]
  AC50: 0.233 µM (active)
[19]
  AC50: 0.0342 µM (active)
[20]
  AC50: 0.105 µM (active)

## C[C@@H](NCCCn1cnc2c(OCc3ccccc3)ncnc21)c1cccc2ccccc12
[21]
  IC50: > 96.6 µM (inactive)

## O=C(CCCN1CCC(O)(c2ccc(Br)cc2)CC1)c1ccc(F)cc1 [BROMPERIDOL]
[22]
  IC50: > 33.3 µM (inactive)
Cytochrome P450 1A2
  AC50: 5.01 µM (inconclusive)
Cytochrome P450 3A4
  AC50: inconclusive

## CCSc1nnc(-c2ccccc2)o1
[23]
  IC90: 31 µM (active)
[24]
  IC90: 31 µM (active)

## NC(=O)n1c(O)c(C(=O)c2cccs2)c2cc(Cl)ccc21
[25]
  IC50: 1.02 µM (active)
[26]
  IC50: 4.7 µM (active)
[27]
  IC50: 2.31 µM (active)
[28]
  IC50: 0.537 µM (active)
[29]
  IC50: 1.64 µM (active)
[30]
  IC50: 5.6 µM (inactive)
[31]
  IC50: 6.95 µM (inactive)
[32]
  IC50: 3.79 µM (active)

## CC(=O)c1ccc(N2CCN(C(=O)c3ccccc3F)CC2)cc1
[33]
  AC50: > 52 µM (inactive)

## COC(=O)[C@@]1(Cc2ccccc2CN=[N+]=[N-])N=C(c2ccc(OCCCO)cc2)O[C@H]1c1ccccc1
[34]
  AC50: 17.4 µM (active)

## COc1ccccc1C(=O)Nc1cc(NC(=O)c2ccccc2C(C)C)ccc1F
[35]
  IC50: 0.71 µM (active)
[36]
  IC50: 0.109 µM (active)

## Cc1ccc2c(c1)[C@H]1[C@H](CO2)[C@H](c2ccccc2)[C@]2(C)C(=O)N(Cc3ccc(F)cc3)CC(=O)N12
[37]
  EC50: 3.83 µM (active)
[38]
  EC50: 63.9 µM (inactive)
Fibrinogen beta chain [39]
  IC50: > 83.3 µM (inactive)
Fibrinogen beta chain [40]
  IC50: > 83.3 µM (inactive)
